Results: PubChem BioAssay (NCI)
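Step 1: Grow cells in 96-well plates. Step 2: Expose to compound for 48 hours at 5 concentrations. Step 3: Interpolate endpoints linearly; if unreached, use highest concentration. The concentration for 50% growth inhibition is given as GI50. The concentration for full growth arrest is given as TGI.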

Tests used:
Assay in all cases: NCI-60 cell line screen, 48 h
[1] = tested on: CAKI-1 renal
[2] = tested on: CCRF-CEM leukemia
[3] = tested on: HCT-116 colon
[4] = tested on: HOP-92 NSCLC
[5] = tested on: M14 melanoma
[6] = tested on: MALME-3M melanoma
[7] = tested on: NCI-H226 lung
[8] = tested on: OVCAR-8 ovarian
[9] = tested on: SF-268 CNS
[10] = tested on: UACC-62 melanoma

O=C(/C=C/c1ccc(Cl)cc1Cl)c1ccc(Cl)cc1Cl
GI50 [1]: 36 µM | TGI [1]: > 92.8 µM | GI50 [2]: 9140 nM | TGI [2]: 32.8 µM | GI50 [3]: 5.82 µM | TGI [3]: 17.1 µM | GI50 [4]: 50.8 µM | TGI [4]: > 76.1 µM | GI50 [5]: 18.7 µM | TGI [5]: 46.3 µM | GI50 [6]: 13.9 µM | TGI [6]: 35.6 µM | GI50 [7]: 19.9 µM | TGI [7]: 40.8 µM | GI50 [8]: 16.6 µM | TGI [8]: 39.6 µM | GI50 [9]: > 63.3 µM | TGI [9]: > 100 µM | GI50 [10]: 1.52 µM | TGI [10]: 12.1 µM

CC(=O)[O][Hg][c]1s[c]([Hg][O]C(C)=O)[c]([Hg][O]C(C)=O)[c]1[Hg][O]C(C)=O
GI50 [2]: 1180 nM | TGI [2]: > 100 µM | GI50 [3]: 7.12 µM | TGI [3]: > 100 µM | GI50 [4]: 2.92 µM | TGI [4]: 5.88 µM | GI50 [5]: 1.98 µM | TGI [5]: 14 µM | GI50 [6]: 3.16 µM | TGI [6]: 17.2 µM | GI50 [7]: > 100 µM | TGI [7]: > 100 µM | GI50 [8]: 2.93 µM | TGI [8]: > 100 µM | GI50 [9]: 5.92 µM | GI50 [10]: 6.47 µM | TGI [10]: 27.4 µM

COc1ccc(F)cc1-c1ccnc2[nH]c(C3=CCN(C4CCC(CC(=O)O)CC4)CC3)cc12 (centres undefined)
GI50 [1]: 0.434 µM | TGI [1]: > 100 µM | GI50 [2]: 130 nM | TGI [2]: > 100 µM | GI50 [3]: 0.163 µM | TGI [3]: > 100 µM | GI50 [4]: 0.0568 µM | TGI [4]: 0.666 µM | GI50 [5]: 0.275 µM | TGI [5]: 1.93 µM | GI50 [6]: 0.206 µM | TGI [6]: 0.563 µM | GI50 [8]: 0.288 µM | TGI [8]: > 100 µM | GI50 [9]: 0.144 µM | TGI [9]: 17.7 µM | GI50 [10]: 0.113 µM | TGI [10]: 0.371 µM

CCCC(=O)OC(OC(=O)CCC)c1ccc([N+](=O)[O-])o1
TGI [1]: 38.4 µM | TGI [2]: > 100 µM | TGI [3]: 32.8 µM | TGI [4]: 56.3 µM | TGI [5]: 47.8 µM | TGI [6]: 40.3 µM | TGI [8]: > 100 µM | TGI [9]: > 100 µM | TGI [10]: 49.1 µM

COC(=O)C(=O)C(C#N)c1c(Cl)cccc1Cl (centres undefined)
TGI [1]: > 100 µM | TGI [3]: > 100 µM | TGI [4]: > 100 µM | TGI [5]: > 100 µM | TGI [6]: > 100 µM | TGI [7]: > 100 µM | TGI [8]: > 100 µM | TGI [9]: > 100 µM | TGI [10]: > 100 µM

Cn1cccc1-c1cc(-c2ccccc2)nc(N)c1C#N
GI50 [1]: > 100 µM | TGI [1]: > 100 µM | GI50 [3]: > 100 µM | TGI [3]: > 100 µM | GI50 [5]: > 100 µM | TGI [5]: > 100 µM | GI50 [6]: > 100 µM | TGI [6]: > 100 µM | GI50 [7]: > 46.4 µM | TGI [7]: > 100 µM | GI50 [8]: > 100 µM | TGI [8]: > 100 µM | GI50 [9]: > 100 µM | TGI [9]: > 100 µM | GI50 [10]: 34.5 µM | TGI [10]: > 100 µM

CC(=O)/C(=C/N1CCN(C(=O)c2ccco2)C1=S)C(=O)c1ccccc1
GI50 [1]: 9.29 µM | TGI [1]: 32.5 µM | GI50 [3]: 6.39 µM | TGI [3]: 16.6 µM | GI50 [4]: 11.1 µM | TGI [4]: 32.1 µM | GI50 [5]: 6.32 µM | TGI [5]: 13.1 µM | GI50 [6]: 9.28 µM | TGI [6]: 46.7 µM | GI50 [8]: 8.75 µM | TGI [8]: 24.3 µM | GI50 [9]: 10.7 µM | TGI [9]: 27 µM | GI50 [10]: 7.33 µM | TGI [10]: 16.9 µM

CC1(C2CCC3(C)C(C2)C3Sc2ccccc2)OCCO1 (centres undefined)
TGI [1]: 51.4 µM | TGI [2]: 40.3 µM | TGI [3]: 34 µM | TGI [4]: 56 µM | TGI [5]: > 100 µM | TGI [6]: 41.8 µM | TGI [8]: > 100 µM | TGI [9]: > 100 µM | TGI [10]: 43.1 µM

CCOc1ccccc1N=Cc1c2ccccc2cc2ccccc12
TGI [1]: > 92.4 µM | TGI [2]: > 58.1 µM | TGI [3]: 41.5 µM | TGI [4]: 53.4 µM | TGI [5]: 41.1 µM | TGI [7]: > 100 µM | TGI [8]: 70 µM | TGI [9]: 54.5 µM | TGI [10]: > 100 µM

CCOc1ccccc1NC(=O)C1=C(C)NC(C)=C(C(=O)Nc2ccccc2OCC)C1c1cccc([N+](=O)[O-])c1
TGI [1]: > 100 µM | TGI [2]: > 100 µM | TGI [4]: 41.3 µM | TGI [5]: > 100 µM | TGI [6]: > 100 µM | TGI [7]: > 100 µM | TGI [8]: > 100 µM | TGI [9]: > 100 µM

CCCCCCCCc1cc(O)ccc1O
GI50 [1]: 21.3 µM | TGI [1]: 90 µM | GI50 [2]: 4090 nM | TGI [2]: 33.3 µM | GI50 [3]: 14.7 µM | TGI [3]: 27.9 µM | GI50 [4]: 4.65 µM | TGI [4]: 21.1 µM | GI50 [6]: 16.6 µM | TGI [6]: 34.4 µM | GI50 [7]: 17.3 µM | TGI [7]: 41.7 µM | GI50 [8]: 29.2 µM | TGI [8]: > 100 µM | GI50 [9]: 14.1 µM | TGI [9]: 31.3 µM | GI50 [10]: 13.6 µM | TGI [10]: 26.6 µM

C1CC[N-]CC1.CC(=N\O)/C(C)=N/O.CC(=N\O)/C(C)=N/O.C[CH-]C(C)O.[Co+2]
GI50 [1]: 24 µM | TGI [1]: 57.8 µM | GI50 [3]: 18.2 µM | TGI [3]: 36.7 µM | GI50 [4]: 19.4 µM | TGI [4]: 48.6 µM | GI50 [5]: 20.8 µM | TGI [5]: 45.1 µM | GI50 [6]: 15.2 µM | TGI [6]: 29.7 µM | GI50 [7]: 26.2 µM | TGI [7]: 69 µM | GI50 [8]: 21.2 µM | TGI [8]: 59.6 µM | GI50 [9]: 29.4 µM | TGI [9]: 95 µM | GI50 [10]: 15.6 µM | TGI [10]: 29 µM

Cc1nc(-n2nc(-c3ccccc3)cc2-c2ccccc2)sc1C(=O)CC(=O)C(=O)Nc1ccc(O)cc1
TGI [1]: > 100 µM | TGI [2]: > 100 µM | TGI [3]: > 100 µM | TGI [5]: > 100 µM | TGI [6]: > 100 µM | TGI [7]: > 100 µM | TGI [8]: > 100 µM | TGI [9]: > 100 µM | TGI [10]: > 100 µM

C[C@@H](C[C@H](CCO)c1ccccc1)c1ccc2ccccc2c1
GI50 [1]: 1.28 µM | TGI [1]: 2.54 µM | GI50 [2]: 364 nM | TGI [2]: 1.51 µM | GI50 [3]: 1.36 µM | TGI [3]: 2.67 µM | GI50 [4]: 1.39 µM | TGI [4]: 2.77 µM | GI50 [5]: 1.46 µM | TGI [5]: 2.84 µM | GI50 [6]: 1.49 µM | TGI [6]: 2.89 µM | GI50 [8]: 1.85 µM | TGI [8]: 3.82 µM | GI50 [9]: 1.48 µM | TGI [9]: 3.09 µM | GI50 [10]: 1.42 µM | TGI [10]: 2.86 µM

CCCCOP1(=O)CC(C)=C(Cl)C(C)(OC)C1 (centres undefined)
TGI [2]: 98.7 µM | TGI [3]: > 100 µM | TGI [4]: > 100 µM | TGI [5]: > 100 µM | TGI [6]: > 100 µM | TGI [7]: > 100 µM | TGI [8]: > 100 µM | TGI [9]: > 100 µM | TGI [10]: > 100 µM

CC1OC(=O)N2CCC=CC12 (centres undefined)
TGI [2]: > 100 µM | TGI [3]: > 100 µM | TGI [6]: > 100 µM | TGI [7]: > 100 µM | TGI [8]: > 100 µM | TGI [9]: > 100 µM | TGI [10]: > 100 µM

Cc1c(C2CCSc3ccccc3N2)sc2ccccc12 (centres undefined)
TGI [1]: > 100 µM | TGI [3]: > 100 µM | TGI [4]: > 100 µM | TGI [5]: > 100 µM | TGI [6]: > 100 µM | TGI [7]: > 100 µM | TGI [8]: > 100 µM | TGI [9]: > 100 µM | TGI [10]: > 100 µM
